# Test results taken from US8318746B2, “Nitrogen-containing five-membered heterocyclic compound” (Takeda Pharmaceutical Company Limited, priority 2007, dated 2012).
# Counter-ions that a name gives are not always drawn.
# Columns and labels:
# [1] = biological target: T1, GST-hLGK1 (GST added to the amino terminal of human liver GK) (Homo sapiens, UniProt P35557); experiment: Measurement of GK activation value; format: biochemical; details: test compound final concentration 10 μmol/L; reaction rate divided by that of control group (50% DMSO without test compound); Mant-ATP substrate, D-glucose, 37° C., 60 min
# T1 construct: with a BamHI site added to immediately before the initiation codon; made in house; host or cells: Escherichia coli BL21 (Stratagene), plasmid pGEX6P-2/hLGK1
# T1 sequence (P35557 1-464 isoform P35557-3): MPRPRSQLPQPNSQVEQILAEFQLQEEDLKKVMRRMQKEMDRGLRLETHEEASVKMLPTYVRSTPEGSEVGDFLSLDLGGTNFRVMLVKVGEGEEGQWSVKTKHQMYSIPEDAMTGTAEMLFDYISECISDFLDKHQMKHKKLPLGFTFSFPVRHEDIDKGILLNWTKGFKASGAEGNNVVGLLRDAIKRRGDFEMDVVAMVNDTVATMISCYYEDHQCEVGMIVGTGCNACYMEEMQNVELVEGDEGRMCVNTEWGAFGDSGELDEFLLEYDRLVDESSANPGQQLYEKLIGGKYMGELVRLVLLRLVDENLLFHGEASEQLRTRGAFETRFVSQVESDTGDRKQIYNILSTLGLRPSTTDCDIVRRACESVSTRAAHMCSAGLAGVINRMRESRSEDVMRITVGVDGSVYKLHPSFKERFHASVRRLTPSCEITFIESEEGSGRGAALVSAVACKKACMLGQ
# Method: To each well of a 384-well black plate (Nalge Nunc International K.K.) was added 5 μL of 50% dimethyl sulfoxide solution containing test compound diluted to 100 μmol/L. Then, GST-hLGK1 obtained in Reference Example 2A was diluted with measurement buffer (containing 50 mM HEPES (pH 7.4), 200 mM KCl, 5 mM MgCl2, 2.5 mM DTT and 50 μM 2′-(or-3′)—O—(N-methylanthraniloyl) adenosine 5′-triphosphate (Mant-ATP) (Jena BioScience)) to 6 μg/mL and 35 μL thereof was added to each well.
# Each well was stood at 37° C. for 10 min, 25 mM D-glucose solution (10 μL) was added to start the reaction. The final concentration of the test compound was 10 μmol/L.
# Each, well after the reaction was stood at 37° C. for 60 min, and the reaction was quenched by adding 25 μL of a quenching solution (containing 200 mM HEPES (pH 7.4), 20 mM MgCl2, 200 mM EDTA, 0.03% Triton-X 100, 0.3% Coating 3 reagent (Caliper Life Sciences, Inc.)).
# 2′-(or-3′)-O-(N-methylanthraniloyl)adenosine 5′-triphosphate (Mant-ATP, substrate) and Mant-ADP (reaction resultant product) were separated from each well after the reaction by a microchip type capillary electrophoresis apparatus 250 HTS (Caliper Life Sciences, Inc.). The reaction rate [(reaction resultant product peak height)/(reaction resultant product peak height+substrate peak height)×100(%)] was calculated from the ratio of the substrate peak height and reaction resultant product peak height obtained by fluorescence detection (excitation wavelength 355 nm, measurement wavelength 460 nm) and used as the index of GK activity.
# As a control group, the reaction rate was calculated in the same manner as above except that “solution in 50% dimethyl sulfoxide (without test compound)” was used instead of “solution of test compound in 50% dimethyl sulfoxide”.
# The reaction rate of the well (test compound addition group) added with the test compound was divided by the reaction rate of the control group and the obtained percentage was taken as the GK activation value (Emax) of the test compound.
Emax at 10 µM [1] [%],melting point,SMILES
168,,"CS(=O)(=O)c1ccc(C(CC2CCCC2)c2ccc(-c3ccccn3)[nH]2)cc1 (stereo not drawn) [Example 2, 2-(5-{2-cyclopentyl-1-[4-(methylsulfonyl)phenyl]ethyl}-1H-pyrrol-2-yl)pyridine]"
173,,"Cc1cc(C(CC2CCCC2)c2ccc(S(C)(=O)=O)cc2)[nH]c1C(=O)O (stereo not drawn) [Example 9, 5-{2-cyclopentyl-1-[4-(methylsulfonyl)phenyl]ethyl}-3-methyl-1H-pyrrole-2-carboxylic acid]"
195,,"CS(=O)(=O)c1ccc(C(CC2CCCC2)c2ccc(-c3nccs3)[nH]2)cc1 (stereo not drawn) [Example 1, 2-(5-{2-cyclopentyl-1-[4-(methylsulfonyl)phenyl]ethyl}-1H-pyrrol-2-yl)-1,3-thiazole]"
193,,"Cc1cc(C(CC2CCCC2)c2ccc(S(C)(=O)=O)cc2)[nH]c1C(N)=O (stereo not drawn) [Example 10, 5-{2-cyclopentyl-1-[4-(methylsulfonyl)phenyl]ethyl}-3-methyl-1H-pyrrole-2-carboxamide]"
225,,"CCOC(=O)c1[nH]c(C(CC2CCCC2)c2ccc(S(C)(=O)=O)cc2)cc1C (stereo not drawn) [Example 8, Ethyl 5-{2-cyclopentyl-1-[4-(methylsulfonyl)phenyl]ethyl}-3-methyl-1H-pyrrole-2-carboxylate]"
157,,"CS(=O)(=O)c1ccc(C(CC2CCCC2)c2ncc(C(=O)C3CCC3)[nH]2)cc1 (stereo not drawn) [Example 21, Cyclobutyl(2-{2-cyclopentyl-1-[4-(methylsulfonyl)phenyl]ethyl}-1H-imidazol-5-yl)methanone]"
167,,"Cn1cnc(-c2ccc(C(CC3CCCC3)c3ccc(S(C)(=O)=O)cc3)[nH]2)c1 (stereo not drawn) [Example 5, 4-(5-{2-cyclopentyl-1-[4-(methylsulfonyl)phenyl]ethyl}-1H-pyrrol-2-yl)-1-methyl-1H-imidazole]"
,105 to 106 °C,"CC(O)c1cnc(-c2ccc(C(CC3CCOCC3)c3ccc(S(=O)(=O)C4CC4)cc3)[nH]2)s1 (stereo not drawn) [Example 166, Optically Active Form of 1-[2-(5-{1-[4-(cyclopropylsulfonyl)phenyl]-2-(tetrahydro-2H-pyran-4-yl)ethyl}-1H-pyrrol-2-yl)-1,3-thiazol-5-yl]ethanol]"

# The remaining lines, values behind:
SMILES,Emax at 10 µM [1] [%],melting point
"O=S(=O)(c1ccc(C(CC2CCOCC2)c2ccc(-c3ccc(C(O)CO)cn3)[nH]2)cc1)C1CC1 (stereo not drawn) [Example 42, 1-[6-(5-{1-[4-(cyclopropylsulfonyl)phenyl]-2-(tetrahydro-2H-pyran-4-yl)ethyl}-1H-pyrrol-2-yl)pyridin-3-yl]ethane-1,2-diol]",156,
"CS(=O)(=O)c1ccc(C(CC2CCOCC2)c2ccc(-c3ccc(C(O)CO)cn3)[nH]2)cc1Cl (stereo not drawn) [Example 91, 1-[6-(5-{1-[3-chloro-4-(methylsulfonyl)phenyl]-2-(tetrahydro-2H-pyran-4-yl)ethyl}-1H-pyrrol-2-yl)pyridin-3-yl]ethane-1,2-diol]",142,
"O=S(=O)(c1ccc(C(CC2CCOCC2)c2ccc(-c3ncc(C(O)CO)s3)[nH]2)cc1)C1CC1 (stereo not drawn) [Example 34, 1-[2-(5-{1-[4-(cyclopropylsulfonyl)phenyl]-2-(tetrahydro-2H-pyran-4-yl)ethyl}-1H-pyrrol-2-yl)-1,3-thiazol-5-yl]ethane-1,2-diol]",178,
"CC(=O)N1CCN(Cc2ccc(-c3ccc(C(CC4CCOCC4)c4ccc(S(=O)(=O)C5CC5)cc4)[nH]3)nc2)CC1 (stereo not drawn) [Example 62, 1-acetyl-4-{[6-(5-{1-[4-(cyclopropylsulfonyl)phenyl]-2-(tetrahydro-2H-pyran-4-yl)ethyl}-1H-pyrrol-2-yl)pyridin-3-yl]methyl}piperazine]",153,
"O=C(c1[nH]c(C(CC2CCCC2)c2ccc(S(=O)(=O)C3CC3)cc2)nc1F)C1CC1 (stereo not drawn) [Example 24, (2-{2-cyclopentyl-1-[4-(cyclopropylsulfonyl)phenyl]ethyl}-4-fluoro-1H-imidazol-5-yl)(cyclopropyl)methanone]",190,
"CC(C)C(=O)c1[nH]c(C(CC2CCCC2)c2ccc(S(C)(=O)=O)cc2)nc1F (stereo not drawn) [Example 14, 1-(2-{2-cyclopentyl-1-[4-(methylsulfonyl)phenyl]ethyl}-4-fluoro-1H-imidazol-5-yl)-2-methylpropan-1-one]",185,
CS(=O)(=O)c1ccc(C(C[C@H]2CCC(=O)C2)c2ccc(-c3ccc(CO)cn3)[nH]2)cc1Cl (stereo partly drawn) [Example 197],142,
"CC(CC1CCOCC1)(c1ccc(S(C)(=O)=O)cn1)c1ccc(-c2ccccn2)[nH]1 (stereo not drawn) [Example 245, 2-[1-methyl-1-(5-(pyridin-2-yl)-1H-pyrrol-2-yl)-2-(tetrahydro-2H-pyran-4-yl)ethyl]-5-(methylsulfonyl)pyridine]",,135 to 136 °C
Cl.O=C1CCN(Cc2cnc(-c3ccc(C(CC4CCOCC4)c4ccc(S(=O)(=O)C5CC5)cc4)[nH]3)s2)CC1 (stereo not drawn),,146 to 148 °C
"O=C(O)CCc1cnc(-c2ccc(C(CC3CCOCC3)c3ccc(S(=O)(=O)C4CC4)cc3)[nH]2)s1 (stereo not drawn) (as salt: calcium) [Example 163, 3-[2-(5-{1-[4-(cyclopropylsulfonyl)phenyl]-2-(tetrahydro-2H-pyran-4-yl)ethyl}-1H-pyrrol-2-yl)-1,3-thiazol-5-yl]propanoic acid 1/2 calcium salt]",,> 194 °C (dec.)
"CC(O)c1cnc(-c2ccc(C(CC3CCOCC3)c3ccc(S(=O)(=O)C4CC4)cc3)[nH]2)s1 (stereo not drawn) [Example 168, Optically Active Form of 1-[2-(5-{1-[4-(cyclopropylsulfonyl)phenyl]-2-(tetrahydro-2H-pyran-4-yl)ethyl}-1H-pyrrol-2-yl)-1,3-thiazol-5-yl]ethanol]",,115 to 116 °C
"O=C(Cc1ccc(-c2ccc(C(CC3CCOCC3)c3ccc(S(=O)(=O)C4CC4)cc3)[nH]2)nc1)N1CCC1 (stereo not drawn) [Example 131, 5-(2-(azetidin-1-yl)-2-oxoethyl)-2-(5-{1-[4-(cyclopropylsulfonyl)phenyl]-2-(tetrahydro-2H-pyran-4-yl)ethyl}-1H-pyrrol-2-yl)pyridine]",,94 to 98 °C
CC(=O)N1CCN(Cc2cnc(-c3ccc(C(CC4CCOCC4)c4ccc(S(=O)(=O)C5CC5)cc4)[nH]3)s2)CC1.Cl (stereo not drawn),,156 to 158 °C
"CC(C)(O)C(O)c1ccc(-c2ccc(/C(=C/C3CCOCC3)c3ccc(S(=O)(=O)C4CC4)cc3)[nH]2)nc1 (stereo not drawn) [Example 220, 1-(6-{5-[(E)-1-[4-(cyclopropylsulfonyl)phenyl]-2-(tetrahydro-2H-pyran-4-yl)ethenyl]-1H-pyrrol-2-yl}pyridin-3-yl)-2-methylpropane-1,2-diol]",,196 to 197 °C
"O=C(O)c1cc(-c2nccs2)[nH]c1C(CC1CCOCC1)c1ccc(S(=O)(=O)C2CC2)cc1 (stereo not drawn) [Example 104, 2-{1-[4-(cyclopropylsulfonyl)phenyl]-2-(tetrahydro-2H-pyran-4-yl)ethyl}-5-(1,3-thiazol-2-yl)-1H-pyrrole-3-carboxylic acid]",,153 to 155 °C
"O=C1CN(Cc2cnc(-c3ccc(C(CC4CCOCC4)c4ccc(S(=O)(=O)C5CC5)cc4)[nH]3)s2)C(=O)N1 (stereo not drawn) [Example 147, 1-{[2-(5-{1-[4-(cyclopropylsulfonyl)phenyl]-2-(tetrahydro-2H-pyran-4-yl)ethyl}-1H-pyrrol-2-yl)-1,3-thiazol-5-yl]methyl}imidazolidine-2,4-dione]",,184 to 185 °C
